Read-outs that look alike come from different tables or passages of the source.
Tests used:
[1] = tested on: Her-2 (HSP90 client); test: Her-2 (HSP90 client) degradation (client depletion); type: cell-based
Procedure: A number of the compounds of the invention were tested for affinity to HSP90α (see Kim et al., J. Biomol. Screen., 2004, 9, 375), Her-2 (HSP90 client) degradation (see Xu et al., J. Biol. Chem., 2001, 276, 3702), and cytotoxicity against SKBr3 and HCC1954, two breast cancer cell lines which over express Her-2.

[2] = molecular target: HSP90α (Homo sapiens, UniProt P07900); test: Affinity to HSP90α; type: binding
[3] = tested on: HCC1954; test: Cytotoxicity against HCC1954 breast cancer cells; type: cell-based; conditions: Homo sapiens, second value of cell
Procedure: (§1) Compounds of the invention were assayed for cytotoxicity in HCC1954 and SK-BR-3 tumor cells.

[4] = tested on: SKBr3; test: Cytotoxicity against SKBr3 breast cancer cells; type: cell-based; conditions: Homo sapiens, SK-BR-3, first value of cell
Procedure: as §1

[5] = Her-2 degradation; read-out: Client Depletion
[6] = read-out: Client Depletion; Her-2 degradation

| IC50 [1, 5] | IC50 ([2]; read-out: HSP90 affinity) | IC50 [1, 6] | IC50 ([2]; HSP90 affinity) | SMILES | IC50 [3] | IC50 [4] |
| --- | --- | --- | --- | --- | --- | --- |
| 2960 nM | 543 nM |  |  | CC1/C=C/CCCOC(=O)c2c(O)cc(O)cc2CC(=NOCC(=O)N2CCCCC2)/C=C/C1 (centres unmarked) [compound 361] |  |  |
| 3650 nM | 182 nM |  |  | O=C1OCCC/C=C/CC/C=C/C(=NOCC(=O)N2CCCCC2)Cc2c(Cl)c(O)cc(O)c21 [compound 396] |  |  |
|  |  | 89 nM | 59 nM | CC1CCCN(C(=O)CON=C2/C=C/CC/C=C/CCOC(=O)c3c(O)cc(O)cc3C2)C1 (centres unmarked) [compound 373] |  |  |
|  |  | 669 nM | 128 nM | O=C1OCC/C=C/CC/C=C/C(=NOCC(=O)N2CC=CC2)Cc2cc(O)cc(O)c21 [compound 386] |  |  |
| > 10000 nM | 1800 nM |  |  | O=C1OCC/C=C/CC/C=C/C(=N\OCC(=O)N2CCCCC2)Cc2c(Cl)c(O)cc(O)c21 [14a] | 5200 nM | > 10000 nM |
|  |  |  | 97 nM | O=C1OCC/C=C/CC/C=C/C(=NOCC(=O)N2CCNCC2)Cc2cc(O)cc(O)c21 [compound 393] |  |  |
| > 10000 nM | 220 nM |  |  | O=C1OCC/C=C/CC/C=C/C(=NOCC(=O)N2CCOCC2)Cc2c(Cl)c(O)cc(O)c21 [13d] | > 10000 nM | > 10000 nM |
|  |  | 122 nM | 22 nM | O=C1OCC/C=C/CC/C=C/C(=NOCC(=O)N2CC=CCC2)Cc2cc(O)cc(O)c21 [compound 382] |  |  |
|  |  | 8160 nM | 373 nM | COC(=O)CON=C1/C=C/CC/C=C/CCOC(=O)c2c(O)cc(O)cc2C1 [compound 385] |  |  |
|  |  | 5000 nM | 110 nM | O=C1OCC/C=C/CC/C=C/C(=N\OCC(=O)N2CCCCC2)Cc2cc(O)cc(O)c21 [14b] | > 10000 nM | > 10000 nM |
|  |  | 454 nM | 155 nM | CCCN(CCC)C(=O)CON=C1/C=C/CC/C=C/CCOC(=O)c2c(O)cc(O)cc2C1 [compound 389] |  |  |
|  |  | 3070 nM | 886 nM | CC1CCCCN1C(=O)CON=C1/C=C/CC/C=C/CCOC(=O)c2c(O)cc(O)cc2C1 (centres unmarked) [compound 372] |  |  |
|  |  | 708 nM | 116 nM | O=C(CON=C1/C=C/CC/C=C/CCOC(=O)c2c(O)cc(O)cc2C1)NC1CCCCC1 [compound 383] |  |  |
|  |  | 2830 nM | 337 nM | CC1CN(C(=O)CON=C2/C=C/CC/C=C/CCOC(=O)c3c(O)cc(O)cc3C2)CC(C)O1 (centres unmarked) [compound 391] |  |  |
|  |  | 627 nM | 162 nM | CC(C)N(C(=O)CON=C1/C=C/CC/C=C/CCOC(=O)c2c(O)cc(O)cc2C1)C(C)C [compound 379] |  |  |
|  |  | 2030 nM | 238 nM | CC1CCCC(C)N1C(=O)CON=C1/C=C/CC/C=C/CCOC(=O)c2c(O)cc(O)cc2C1 (centres unmarked) [compound 374] |  |  |

| IC50 [1, 5] | IC50 ([2]; read-out: HSP90 affinity) | IC50 [1, 6] | IC50 ([2]; HSP90 affinity) | SMILES | IC50 [3] | IC50 [4] |
| --- | --- | --- | --- | --- | --- | --- |
|  |  | > 10000 nM | 5760 nM | O=C1OCC/C=C/CC/C=C/C(=NOCC(=O)N2CCC(Cc3ccccc3)CC2)Cc2cc(O)cc(O)c21 [compound 377] |  |  |
|  |  | 512 nM | 70 nM | O=C1OCC/C=C/CC/C=C/C(=NOCC(=O)N2CCSCC2)Cc2cc(O)cc(O)c21 [compound 384] |  |  |
|  |  | 509 nM | 219 nM | O=C1OCC/C=C/CC/C=C/C(=NOCC(=O)N2CCCC2)Cc2cc(O)cc(O)c21 [compound 388] |  |  |
|  |  | 201 nM | 70 nM | CC1CCN(C(=O)CON=C2/C=C/CC/C=C/CCOC(=O)c3c(O)cc(O)cc3C2)CC1 [compound 375] |  |  |
|  |  | 629 nM | 243 nM | CCC1CCCCN1C(=O)CON=C1/C=C/CC/C=C/CCOC(=O)c2c(O)cc(O)cc2C1 (centres unmarked) [compound 371] |  |  |
|  |  | 568 nM | 118 nM | CC1C=CC(C)N1C(=O)CON=C1/C=C/CC/C=C/CCOC(=O)c2c(O)cc(O)cc2C1 (centres unmarked) [compound 387] |  |  |
|  |  | 97 nM | 38 nM | CC1/C=C/CCOC(=O)c2c(O)cc(O)cc2CC(=NOCC(=O)N2CCCCC2)/C=C/C1 (centres unmarked) [compound 370] |  |  |
|  | 1200 nM |  |  | CNC(=O)CON=C1/C=C/CC/C=C/CCOC(=O)c2c(O)cc(O)c(Cl)c2C1 [13i] | > 10000 nM | > 10000 nM |
| 2870 nM | 327 nM |  |  | CC(C)(C)OC(=O)N1CCN(C(=O)CON=C2/C=C/CC/C=C/CCOC(=O)c3c(O)cc(O)cc3C2)CC1 [compound 392] |  |  |
|  |  | 549 nM | 94 nM | CC(C)CN(CC(C)C)C(=O)CON=C1/C=C/CC/C=C/CCOC(=O)c2c(O)cc(O)cc2C1 [compound 390] |  |  |
|  |  | > 10000 nM | 2240 nM | O=C1OCC/C=C/CC/C=C/C(=NOCC(=O)N2CCC(c3ccccc3)CC2)Cc2cc(O)cc(O)c21 [compound 376] |  |  |
|  |  | 588 nM | 124 nM | O=C1OCC/C=C/CC/C=C/C(=NOCC(=O)N2CCOCC2)Cc2cc(O)cc(O)c21 [compound 380] |  |  |
|  |  | 730 nM | 196 nM | CCN(CC)C(=O)CON=C1/C=C/CC/C=C/CCOC(=O)c2c(O)cc(O)cc2C1 [compound 357] |  |  |
|  |  | > 10000 nM | 587 nM | CCCC1C/C=C/CC/C=C/C(=NOCC(=O)N2CCCCC2)Cc2cc(O)cc(O)c2C(=O)O1 (centres unmarked) [compound 358] |  |  |
|  |  | 105 nM | 46 nM | C/C1=C\C(=NOCC(=O)N2CCCCC2)Cc2cc(O)cc(O)c2C(=O)OCC/C=C/CC1 [compound 349] |  |  |
|  |  | 929 nM | 57 nM | O=C(CON=C1/C=C/CC/C=C/CCOC(=O)c2c(O)cc(O)cc2C1)NCc1ccccc1 [compound 378] |  |  |

The next lines start with the molecule.

| SMILES | IC50 [1, 5] | IC50 ([2]; read-out: HSP90 affinity) | IC50 [1, 6] | IC50 ([2]; HSP90 affinity) | IC50 [3] | IC50 [4] |
| --- | --- | --- | --- | --- | --- | --- |
| O=C1NCC/C=C/CC/C=C/C(=NOCC(=O)N2CCCCC2)Cc2c(Cl)c(O)cc(O)c21 [compound 395] |  |  | 754 nM | 97 nM |  |  |
| C[C@@H]1C/C=C/CC/C=C/C(=O)Cc2c(Cl)c(O)cc(O)c2C(=O)O1 [pochonin D, Pochonin D, reference compound] | 3500 nM | 360 nM |  |  |  |  |
| CCCC1C/C=C/C(C)C/C=C/C(=NOCC(=O)N2CCCCC2)Cc2c(Cl)c(O)cc(O)c2C(=O)O1 (centres unmarked) [compound 365] |  |  | 8970 nM | 1750 nM |  |  |
| CCN(CC)C(=O)CON=C1/C=C(\C)CC/C=C/C[C@@H](C)OC(=O)c2c(O)cc(O)cc2C1 [compound 351] |  |  | 900 nM | 204 nM |  |  |
| CC1/C=C/CCCOC(=O)c2c(O)cc(O)c(Cl)c2CC(=NOCC(=O)N2CCCCC2)/C=C/C1 (centres unmarked) [compound 367] |  |  | > 10000 nM | 1720 nM |  |  |
| C/C1=C\C(=NOCC(=O)N2CCCCC2)Cc2cc(O)cc(O)c2C(=O)O[C@H](C)C/C=C/CC1 [compound 336] |  | < 52 nM |  |  |  |  |
| C[C@@H]1C/C=C/[C@@H](O)C/C=C/C(=N/OCC(=O)N2CCCCC2)Cc2cc(O)cc(O)c2C(=O)O1 [compound 457] |  |  |  | 12 nM |  |  |
| O=C1OCC/C=C/CCCCC(=NOCC(=O)N2CCCCC2)Cc2c(Cl)c(O)cc(O)c21 [compound 356] | 9480 nM | 511 nM |  |  |  |  |
| C=CCC/C=C/C(Cc1c(Cl)c(O)cc(O)c1C(=O)OCCC=C)=NOCC(=O)N1CCCCC1 [13m] | > 10000 nM | > 10000 nM |  |  | > 10000 nM | > 10000 nM |
| CC1/C=C/CCOC(=O)c2c(O)cc(O)c(Cl)c2CC(=NOCC(=O)N2CCCCC2)/C=C/C1 (centres unmarked) [compound 366] |  |  | 2040 nM | 170 nM |  |  |
| CCCC1C/C=C/CC/C(C)=C/C(=NOCC(=O)N2CCCCC2)Cc2cc(O)cc(O)c2C(=O)O1 (centres unmarked) [compound 350] |  |  | 805 nM | 196 nM |  |  |
| CCCC1C/C=C/CCCCC(=NOCC(=O)N2CCCCC2)Cc2cc(O)cc(O)c2C(=O)O1 (centres unmarked) [compound 359] |  |  | > 8800 nM | 1940 nM |  |  |
| COC(=O)CON=C1/C=C/CC/C=C/CCOC(=O)c2c(O)cc(O)c(Cl)c2C1 [13l] | 6500 nM | 190 nM |  |  | > 10000 nM | > 10000 nM |
| C=C/C1=C\CC/C=C/C(=NOCC(=O)N2CCCCC2)Cc2c(Cl)c(O)cc(O)c2C(=O)OCC1 [compound 397] |  |  | 980 nM | 432 nM |  |  |
| O=C(CON=C1/C=C/CC/C=C/CCOC(=O)c2c(O)cc(O)c(Cl)c2C1)NC1CCCCC1 [13k] | 250 nM | 90 nM |  |  | 450 nM | 550 nM |
| COC1CC/C=C/CCOC(=O)c2c(O)cc(O)c(Cl)c2C/C(=N\OCC(=O)N2CCCCC2)C1 (centres unmarked) [13f] | 2400 nM | 68 nM |  |  | 2800 nM | 1300 nM |
| CC1/C=C/C[C@@H](C)OC(=O)c2c(O)cc(O)c(Cl)c2CC(=NOCC(=O)N2CCCCC2)/C=C/C1 (some centres unmarked) [compound 369] |  |  | 677 nM | 154 nM |  |  |
| CCCC1C/C=C/CC/C=C/C(=NOCC(=O)N2CCCCC2)Cc2c(Cl)c(O)cc(O)c2C(=O)O1 (centres unmarked) [compound 394] |  |  | 1580 nM | 96 nM |  |  |
| O=C(CON=C1/C=C/CC/C=C/CCOC(=O)c2c(O)cc(O)c(Cl)c2C1)NCCO [13h] | 7700 nM | 390 nM |  |  | > 10000 nM | 7500 nM |
| CCCC1C/C=C/CC/C(C)=C/C(=NOCC(=O)N(CC)CC)Cc2cc(O)cc(O)c2C(=O)O1 (centres unmarked) [compound 363] |  |  | > 10000 nM | 900 nM |  |  |
| CC1/C=C/COC(=O)c2c(O)cc(O)c(Cl)c2CC(=NOCC(=O)N2CCCCC2)/C=C/C1 (centres unmarked) [compound 368] | > 10000 nM | 599 nM |  |  |  |  |
| O=C1OC/C=C/CCCCC(=NOCC(=O)N2CCCCC2)Cc2cc(O)cc(O)c21 [compound 353] | > 10000 nM | 3030 nM |  |  |  |  |
| O=C1OCC/C=C/CC/C=C/C(=NOCC(=O)N(Cc2ccccc2)Cc2ccccc2)Cc2cc(O)cc(O)c21 [compound 381] |  |  | > 10000 nM | 2990 nM |  |  |
| CCCC1C/C=C/CC/C(C)=C/C(=NOCC(=O)N(CC)CC)Cc2cc(O)cc(O)c2C(=O)O1 (centres unmarked) [compound 362] |  |  | > 10000 nM | 4660 nM |  |  |
| O=C1OCC/C=C/CCCCC(=NOCC(=O)N2CCCCC2)Cc2c(Cl)c(O)cc(O)c21 [13g] |  | 81 nM |  |  |  |  |
| C[C@@H]1C[C@H]2O[C@@H]2/C=C\C=C\C(=O)Cc2c(Cl)c(O)cc(O)c2C(=O)O1 [radicicol, reference compound] |  |  | 450 nM |  |  |  |
